In the NIST ThermoML archive (doi:10.1021/je700406p):
± gives the expanded uncertainty stated by the source.

Assay: wn = mass fraction of the nth substance listed
Settings: Liquid, Vibrating tube method

CC(C)(N)CO [2-amino-2-methylpropan-1-ol] + O
mass density (352.85 K, 12992 kPa, w1 = 0.2821): 967.1 ± 0.6 kg/m3
mass density (352.85 K, 13990 kPa, w1 = 0.2821): 967.5 ± 0.6 kg/m3
mass density (352.85 K, 14990 kPa, w1 = 0.2821): 968 ± 0.6 kg/m3
mass density (352.85 K, 15988 kPa, w1 = 0.2821): 968.4 ± 0.6 kg/m3
mass density (352.85 K, 16991 kPa, w1 = 0.2821): 968.8 ± 0.6 kg/m3
mass density (352.85 K, 17991 kPa, w1 = 0.2821): 969.2 ± 0.6 kg/m3
mass density (352.85 K, 18988 kPa, w1 = 0.2821): 969.6 ± 0.6 kg/m3
mass density (352.85 K, 19987 kPa, w1 = 0.2821): 970.1 ± 0.6 kg/m3
mass density (352.85 K, 20985 kPa, w1 = 0.2821): 970.5 ± 0.6 kg/m3
mass density (352.86 K, 500 kPa, w1 = 0.1997): 965 ± 0.5 kg/m3
mass density (352.86 K, 1000 kPa, w1 = 0.1997): 965.2 ± 0.5 kg/m3
mass density (352.86 K, 2000 kPa, w1 = 0.1997): 965.7 ± 0.5 kg/m3
mass density (352.86 K, 3000 kPa, w1 = 0.1997): 966.2 ± 0.5 kg/m3
mass density (352.86 K, 4000 kPa, w1 = 0.1997): 966.5 ± 0.5 kg/m3
mass density (352.86 K, 5000 kPa, w1 = 0.1997): 966.9 ± 0.5 kg/m3
mass density (352.86 K, 6000 kPa, w1 = 0.1997): 967.3 ± 0.5 kg/m3
mass density (352.86 K, 7000 kPa, w1 = 0.1997): 967.8 ± 0.5 kg/m3
mass density (352.86 K, 8000 kPa, w1 = 0.1997): 968.2 ± 0.5 kg/m3
mass density (352.86 K, 9009 kPa, w1 = 0.1997): 968.6 ± 0.5 kg/m3
mass density (352.86 K, 10002 kPa, w1 = 0.1997): 969.1 ± 0.5 kg/m3
mass density (352.86 K, 11001 kPa, w1 = 0.1997): 969.5 ± 0.5 kg/m3
mass density (352.86 K, 12000 kPa, w1 = 0.1997): 970 ± 0.5 kg/m3
mass density (352.86 K, 13000 kPa, w1 = 0.1997): 970.4 ± 0.5 kg/m3
mass density (352.86 K, 14000 kPa, w1 = 0.1997): 970.8 ± 0.5 kg/m3
mass density (352.86 K, 15003 kPa, w1 = 0.1997): 971.2 ± 0.5 kg/m3
mass density (352.86 K, 16001 kPa, w1 = 0.1997): 971.6 ± 0.5 kg/m3
mass density (352.86 K, 17001 kPa, w1 = 0.1997): 972.1 ± 0.5 kg/m3
mass density (352.86 K, 18002 kPa, w1 = 0.1997): 972.5 ± 0.5 kg/m3
mass density (352.86 K, 19001 kPa, w1 = 0.1997): 972.9 ± 0.5 kg/m3
mass density (352.86 K, 20029 kPa, w1 = 0.1997): 973.3 ± 0.5 kg/m3
mass density (352.86 K, 21004 kPa, w1 = 0.1997): 973.8 ± 0.5 kg/m3
mass density (352.86 K, 22004 kPa, w1 = 0.1997): 974.1 ± 0.5 kg/m3
mass density (352.86 K, 23000 kPa, w1 = 0.1997): 974.5 ± 0.5 kg/m3
mass density (352.86 K, 24004 kPa, w1 = 0.1997): 975 ± 0.5 kg/m3
mass density (352.87 K, 1039 kPa, w1 = 0.4976): 945 ± 1.2 kg/m3
mass density (352.87 K, 2018 kPa, w1 = 0.4976): 945.5 ± 1.2 kg/m3
mass density (352.87 K, 3005 kPa, w1 = 0.4976): 946 ± 1.2 kg/m3
mass density (352.87 K, 4018 kPa, w1 = 0.4976): 946.5 ± 1.2 kg/m3
mass density (352.87 K, 5000 kPa, w1 = 0.4976): 946.9 ± 1.2 kg/m3
mass density (352.87 K, 5997 kPa, w1 = 0.4976): 947.4 ± 1.2 kg/m3
mass density (352.87 K, 7007 kPa, w1 = 0.4976): 947.9 ± 1.2 kg/m3
mass density (352.87 K, 7999 kPa, w1 = 0.4976): 948.4 ± 1.2 kg/m3
mass density (352.87 K, 8994 kPa, w1 = 0.4976): 948.9 ± 1.2 kg/m3
mass density (352.87 K, 9996 kPa, w1 = 0.4976): 949.4 ± 1.2 kg/m3
mass density (352.87 K, 10996 kPa, w1 = 0.4976): 949.8 ± 1.2 kg/m3
mass density (352.87 K, 12002 kPa, w1 = 0.4976): 950.3 ± 1.2 kg/m3
mass density (352.87 K, 13000 kPa, w1 = 0.4976): 950.8 ± 1.2 kg/m3
mass density (352.87 K, 13993 kPa, w1 = 0.4976): 951.2 ± 1.2 kg/m3
mass density (352.87 K, 15004 kPa, w1 = 0.4976): 951.7 ± 1.2 kg/m3
mass density (352.87 K, 16002 kPa, w1 = 0.4976): 952.2 ± 1.2 kg/m3
mass density (352.87 K, 16989 kPa, w1 = 0.4976): 952.6 ± 1.3 kg/m3
mass density (352.87 K, 18011 kPa, w1 = 0.4976): 953.1 ± 1.3 kg/m3
mass density (352.87 K, 18989 kPa, w1 = 0.4976): 953.5 ± 1.3 kg/m3
mass density (352.87 K, 20010 kPa, w1 = 0.4976): 954 ± 1.3 kg/m3
mass density (352.87 K, 20989 kPa, w1 = 0.4976): 954.4 ± 1.3 kg/m3
mass density (362.73 K, 999 kPa, w1 = 0.2821): 954.1 ± 0.6 kg/m3
mass density (362.73 K, 1015 kPa, w1 = 0.4976): 936.3 ± 1.2 kg/m3
mass density (362.73 K, 1999 kPa, w1 = 0.2821): 954.5 ± 0.6 kg/m3
mass density (362.73 K, 2010 kPa, w1 = 0.4976): 936.7 ± 1.2 kg/m3
mass density (362.73 K, 2998 kPa, w1 = 0.2821): 955.1 ± 0.6 kg/m3
mass density (362.73 K, 3022 kPa, w1 = 0.4976): 937.3 ± 1.2 kg/m3
mass density (362.73 K, 3996 kPa, w1 = 0.2821): 955.4 ± 0.6 kg/m3
mass density (362.73 K, 3997 kPa, w1 = 0.4976): 937.8 ± 1.2 kg/m3
mass density (362.73 K, 4996 kPa, w1 = 0.2821): 955.9 ± 0.6 kg/m3
mass density (362.73 K, 5010 kPa, w1 = 0.4976): 938.3 ± 1.2 kg/m3
mass density (362.73 K, 5993 kPa, w1 = 0.2821): 956.3 ± 0.6 kg/m3
mass density (362.73 K, 6002 kPa, w1 = 0.4976): 938.8 ± 1.2 kg/m3
mass density (362.73 K, 6993 kPa, w1 = 0.2821): 956.8 ± 0.6 kg/m3
mass density (362.73 K, 6999 kPa, w1 = 0.4976): 939.3 ± 1.2 kg/m3
mass density (362.73 K, 7992 kPa, w1 = 0.4976): 939.8 ± 1.2 kg/m3
mass density (362.73 K, 8006 kPa, w1 = 0.2821): 957.3 ± 0.6 kg/m3
mass density (362.73 K, 8992 kPa, w1 = 0.2821): 957.7 ± 0.6 kg/m3
mass density (362.73 K, 8997 kPa, w1 = 0.4976): 940.3 ± 1.2 kg/m3
mass density (362.73 K, 9994 kPa, w1 = 0.2821): 958.1 ± 0.6 kg/m3
mass density (362.73 K, 10028 kPa, w1 = 0.4976): 940.9 ± 1.2 kg/m3
mass density (362.73 K, 10990 kPa, w1 = 0.4976): 941.3 ± 1.2 kg/m3
mass density (362.73 K, 10992 kPa, w1 = 0.2821): 958.6 ± 0.6 kg/m3
mass density (362.73 K, 11992 kPa, w1 = 0.2821): 959.1 ± 0.6 kg/m3
mass density (362.73 K, 11996 kPa, w1 = 0.4976): 941.8 ± 1.2 kg/m3
mass density (362.73 K, 12991 kPa, w1 = 0.2821): 959.5 ± 0.6 kg/m3
mass density (362.73 K, 13002 kPa, w1 = 0.4976): 942.3 ± 1.2 kg/m3
mass density (362.73 K, 13992 kPa, w1 = 0.2821): 959.9 ± 0.6 kg/m3
mass density (362.73 K, 13994 kPa, w1 = 0.4976): 942.8 ± 1.2 kg/m3
mass density (362.73 K, 14986 kPa, w1 = 0.4976): 943.3 ± 1.2 kg/m3
mass density (362.73 K, 14988 kPa, w1 = 0.2821): 960.4 ± 0.6 kg/m3
mass density (362.73 K, 15987 kPa, w1 = 0.2821): 960.8 ± 0.6 kg/m3
mass density (362.73 K, 15995 kPa, w1 = 0.4976): 943.8 ± 1.2 kg/m3
mass density (362.73 K, 16985 kPa, w1 = 0.4976): 944.3 ± 1.2 kg/m3
mass density (362.73 K, 16990 kPa, w1 = 0.2821): 961.3 ± 0.6 kg/m3
mass density (362.73 K, 18007 kPa, w1 = 0.4976): 944.8 ± 1.2 kg/m3
mass density (362.73 K, 18019 kPa, w1 = 0.2821): 961.7 ± 0.6 kg/m3
mass density (362.73 K, 18985 kPa, w1 = 0.2821): 962.1 ± 0.6 kg/m3
mass density (362.73 K, 18989 kPa, w1 = 0.4976): 945.2 ± 1.2 kg/m3
mass density (362.73 K, 19985 kPa, w1 = 0.2821): 962.6 ± 0.6 kg/m3
mass density (362.73 K, 19988 kPa, w1 = 0.4976): 945.7 ± 1.2 kg/m3
mass density (362.73 K, 21004 kPa, w1 = 0.4976): 946.2 ± 1.3 kg/m3
mass density (362.74 K, 532 kPa, w1 = 0.1997): 957.9 ± 0.5 kg/m3
mass density (362.74 K, 1001 kPa, w1 = 0.1997): 958 ± 0.5 kg/m3
mass density (362.74 K, 1014 kPa, w1 = 0.4002): 946.1 ± 0.8 kg/m3
mass density (362.74 K, 1992 kPa, w1 = 0.4002): 946.6 ± 0.8 kg/m3
mass density (362.74 K, 2000 kPa, w1 = 0.1997): 958.5 ± 0.5 kg/m3
mass density (362.74 K, 3000 kPa, w1 = 0.1997): 959 ± 0.5 kg/m3
mass density (362.74 K, 3010 kPa, w1 = 0.4002): 947.1 ± 0.8 kg/m3
mass density (362.74 K, 4000 kPa, w1 = 0.1997): 959.4 ± 0.5 kg/m3
mass density (362.74 K, 4009 kPa, w1 = 0.4002): 947.5 ± 0.8 kg/m3
mass density (362.74 K, 5000 kPa, w1 = 0.1997): 960.1 ± 0.5 kg/m3
mass density (362.74 K, 5001 kPa, w1 = 0.4002): 948 ± 0.8 kg/m3
mass density (362.74 K, 6000 kPa, w1 = 0.1997): 960.4 ± 0.5 kg/m3
mass density (362.74 K, 6003 kPa, w1 = 0.4002): 948.5 ± 0.8 kg/m3
mass density (362.74 K, 6999 kPa, w1 = 0.4002): 949 ± 0.8 kg/m3
mass density (362.74 K, 7000 kPa, w1 = 0.1997): 960.7 ± 0.5 kg/m3
mass density (362.74 K, 7990 kPa, w1 = 0.4002): 949.4 ± 0.9 kg/m3
mass density (362.74 K, 8001 kPa, w1 = 0.1997): 961.2 ± 0.5 kg/m3
mass density (362.74 K, 8995 kPa, w1 = 0.4002): 949.9 ± 0.9 kg/m3
mass density (362.74 K, 9009 kPa, w1 = 0.1997): 961.6 ± 0.5 kg/m3
mass density (362.74 K, 10004 kPa, w1 = 0.1997): 962.1 ± 0.5 kg/m3
mass density (362.74 K, 10039 kPa, w1 = 0.4002): 950.4 ± 0.9 kg/m3
mass density (362.74 K, 10986 kPa, w1 = 0.4002): 950.8 ± 0.9 kg/m3
mass density (362.74 K, 11001 kPa, w1 = 0.1997): 962.4 ± 0.5 kg/m3
mass density (362.74 K, 11991 kPa, w1 = 0.4002): 951.3 ± 0.9 kg/m3
mass density (362.74 K, 12999 kPa, w1 = 0.4002): 951.8 ± 0.9 kg/m3
mass density (362.74 K, 13999 kPa, w1 = 0.4002): 952.2 ± 0.9 kg/m3
mass density (362.74 K, 14990 kPa, w1 = 0.4002): 952.7 ± 0.9 kg/m3
mass density (362.74 K, 15993 kPa, w1 = 0.4002): 953.2 ± 0.9 kg/m3
mass density (362.74 K, 16984 kPa, w1 = 0.4002): 953.6 ± 0.9 kg/m3
mass density (362.74 K, 18005 kPa, w1 = 0.4002): 954.1 ± 0.9 kg/m3
mass density (362.74 K, 18993 kPa, w1 = 0.4002): 954.5 ± 0.9 kg/m3
mass density (362.74 K, 19978 kPa, w1 = 0.4002): 955 ± 0.9 kg/m3
mass density (362.74 K, 21014 kPa, w1 = 0.4002): 955.4 ± 0.9 kg/m3
